PMC7619385 (ACS infectious diseases, 2025)
Structures can show the parent of a compound that is named as a salt.

biological target: T1, LmxCLK1 (Leishmania mexicana, UniProt E9AMP2); assay: biochemical; type: binding; conditions: DSF, 10 µM compound, 2 µM LmxCLK1, Run 1
T1 sequence (E9AMP2 1-422): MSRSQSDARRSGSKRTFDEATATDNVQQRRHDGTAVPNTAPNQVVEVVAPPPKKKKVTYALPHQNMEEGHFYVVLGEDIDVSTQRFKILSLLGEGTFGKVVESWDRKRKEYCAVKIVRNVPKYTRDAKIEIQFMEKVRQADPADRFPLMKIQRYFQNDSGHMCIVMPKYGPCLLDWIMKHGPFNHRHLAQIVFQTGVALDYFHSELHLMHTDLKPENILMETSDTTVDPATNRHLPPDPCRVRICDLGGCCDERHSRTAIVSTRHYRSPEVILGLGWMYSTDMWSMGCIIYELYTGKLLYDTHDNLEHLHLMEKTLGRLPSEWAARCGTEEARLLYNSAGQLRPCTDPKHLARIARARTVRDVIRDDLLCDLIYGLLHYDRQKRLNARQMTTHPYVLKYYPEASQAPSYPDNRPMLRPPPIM

Point of comparison: Cn1c(Nc2ccc(C(F)(F)F)cc2)nc2cc(Oc3ccnc(-c4ncc(C(F)(F)F)[nH]4)c3)ccc21 [RAF265 (CHIR-265)], “ΔTm Run 1” value -0.1 °C. Against it:
- CN1CCN(c2cccc(Nc3nc4c(-c5ccc(S(C)(=O)=O)cc5)cccn4n3)c2)CC1 [CEP-33779] — higher, 0.5 °C
- C1=N/C2=N/c3ccc(OCCN4CCCC4)c(c3)COC/C=C/COCc3cccc(c3)C(=C1)N2 [Pacritinib (SB1518)] — higher, 0.2 °C
- CCn1c(N)c(C(=O)NC)c(=O)c2ccc(C#C[C@@](C)(O)COC)nc21 [SAR131675] — higher, 0.0 °C
- CCN1CCN(Cc2ccc(-c3cc4c(N[C@H](C)c5ccccc5)ncnc4[nH]3)cc2)CC1 [AEE788 (NVP-AEE788)] — higher, 0.2 °C
- HER2-Inhibitor-1 — higher, 0.2 °C

same assay, conditions: DSF, 10 µM compound, 2 µM LmxCLK1, Run 1; read-out: ΔTm Run 1

Point of comparison: CC1=C(C(=O)Nc2cc3cn[nH]c3cc2F)C(c2ccc(C(F)(F)F)cc2)CC(=O)N1 (stereo not drawn) [GSK429286A], ΔTm at 10 µM 0.1 °C. Against it:
- O=c1c(-c2ccc(O)cc2)coc2cc(O)cc(O)c12 [Genistein] — higher, 0.2 °C
- O=C(NCCCNc1nc(Nc2cccc(NC(=O)N3CCCC3)c2)ncc1I)c1cccs1 [BX-795] — lower, -0.1 °C
- CC(=O)Nc1cccc(-n2c(=O)n(C3CC3)c(=O)c3c(Nc4ccc(I)cc4F)n(C)c(=O)c(C)c32)c1 [Trametinib (GSK1120212)] — lower, 0 °C
- N#CCNC(=O)c1ccc(-c2ccnc(Nc3ccc(N4CCOCC4)cc3)n2)cc1 [CYT387] — lower, 0 °C
- COc1cc(Nc2ncc3c(n2)-c2ccc(Cl)cc2C(c2c(F)cccc2OC)=NC3)ccc1C(=O)O [Alisertib (MLN8237)] — the same, 0.1 °C
- CCS(=O)(=O)Nc1ccc2c(c1)/C(=C(/Nc1ccc(CN3CCCCC3)cc1)c1ccccc1)C(=O)N2 [Hesperadin] — higher, 1.7 °C
- [H]/N=C(/N)N/C(=N/[H])NCCc1ccccc1 [Phenformin HCl] — lower, 0 °C
- C=CC(=O)Nc1cc(Nc2nccc(-c3cn(C)c4ccccc34)n2)c(OC)cc1N(C)CCN(C)C [AZD9291] — lower, 0 °C
- C[C@@H](Oc1cc(-n2cnc3ccc(CN4CCN(C)CC4)cc32)sc1C(N)=O)c1ccccc1C(F)(F)F [GSK461364] — higher, 0.6 °C

same assay, conditions: DSF, 10 µM compound, 2 µM LmxCLK1, Run 2

Point of comparison: CN1CCN(c2cccc(Nc3nc4c(-c5ccc(S(C)(=O)=O)cc5)cccn4n3)c2)CC1 [CEP-33779], “ΔTm Run 2” value 0.5 °C. Against it:
- C1=N/C2=N/c3ccc(OCCN4CCCC4)c(c3)COC/C=C/COCc3cccc(c3)C(=C1)N2 [Pacritinib (SB1518)] — lower, 0.1 °C
- CCn1c(N)c(C(=O)NC)c(=O)c2ccc(C#C[C@@](C)(O)COC)nc21 [SAR131675] — lower, -0.1 °C
- CCN1CCN(Cc2ccc(-c3cc4c(N[C@H](C)c5ccccc5)ncnc4[nH]3)cc2)CC1 [AEE788 (NVP-AEE788)] — lower, 0.3 °C
- HER2-Inhibitor-1 — lower, -0.1 °C
- Cn1c(Nc2ccc(C(F)(F)F)cc2)nc2cc(Oc3ccnc(-c4ncc(C(F)(F)F)[nH]4)c3)ccc21 [RAF265 (CHIR-265)] — lower, -0.3 °C

same assay, conditions: DSF, 10 µM compound, 2 µM LmxCLK1, Run 2; read-out: ΔTm Run 2

Point of comparison: CC(=O)Nc1cccc(-n2c(=O)n(C3CC3)c(=O)c3c(Nc4ccc(I)cc4F)n(C)c(=O)c(C)c32)c1 [Trametinib (GSK1120212)], ΔTm at 10 µM -0.5 °C. Against it:
- O=c1c(-c2ccc(O)cc2)coc2cc(O)cc(O)c12 [Genistein] — higher, 0.3 °C
- O=C(NCCCNc1nc(Nc2cccc(NC(=O)N3CCCC3)c2)ncc1I)c1cccs1 [BX-795] — higher, 0.4 °C
- N#CCNC(=O)c1ccc(-c2ccnc(Nc3ccc(N4CCOCC4)cc3)n2)cc1 [CYT387] — higher, -0.1 °C
- COc1cc(Nc2ncc3c(n2)-c2ccc(Cl)cc2C(c2c(F)cccc2OC)=NC3)ccc1C(=O)O [Alisertib (MLN8237)] — higher, -0.3 °C
- CCS(=O)(=O)Nc1ccc2c(c1)/C(=C(/Nc1ccc(CN3CCCCC3)cc1)c1ccccc1)C(=O)N2 [Hesperadin] — higher, 1.3 °C
- CC1=C(C(=O)Nc2cc3cn[nH]c3cc2F)C(c2ccc(C(F)(F)F)cc2)CC(=O)N1 (stereo not drawn) [GSK429286A] — higher, 0.2 °C
- [H]/N=C(/N)N/C(=N/[H])NCCc1ccccc1 [Phenformin HCl] — higher, -0.4 °C
- C=CC(=O)Nc1cc(Nc2nccc(-c3cn(C)c4ccccc34)n2)c(OC)cc1N(C)CCN(C)C [AZD9291] — higher, -0.3 °C
- C[C@@H](Oc1cc(-n2cnc3ccc(CN4CCN(C)CC4)cc32)sc1C(N)=O)c1ccccc1C(F)(F)F [GSK461364] — higher, 0.1 °C

same assay, conditions: DSF, 10 µM compound, 2 µM LmxCLK1, mean of two runs

Point of comparison: CCN1CCN(Cc2ccc(-c3cc4c(N[C@H](C)c5ccccc5)ncnc4[nH]3)cc2)CC1 [AEE788 (NVP-AEE788)], “ΔTm Average” value 0.3 °C. Against it:
- CN1CCN(c2cccc(Nc3nc4c(-c5ccc(S(C)(=O)=O)cc5)cccn4n3)c2)CC1 [CEP-33779] — higher, 0.5 °C
- C1=N/C2=N/c3ccc(OCCN4CCCC4)c(c3)COC/C=C/COCc3cccc(c3)C(=C1)N2 [Pacritinib (SB1518)] — lower, 0.2 °C
- CCn1c(N)c(C(=O)NC)c(=O)c2ccc(C#C[C@@](C)(O)COC)nc21 [SAR131675] — lower, 0.0 °C
- HER2-Inhibitor-1 — lower, 0.1 °C
- Cn1c(Nc2ccc(C(F)(F)F)cc2)nc2cc(Oc3ccnc(-c4ncc(C(F)(F)F)[nH]4)c3)ccc21 [RAF265 (CHIR-265)] — lower, -0.2 °C

same assay, conditions: DSF, 10 µM compound, 2 µM LmxCLK1, mean of two runs; read-out: ΔTm Average

Point of comparison: COc1cc(Nc2ncc3c(n2)-c2ccc(Cl)cc2C(c2c(F)cccc2OC)=NC3)ccc1C(=O)O [Alisertib (MLN8237)], ΔTm at 10 µM -0.1 °C. Against it:
- O=c1c(-c2ccc(O)cc2)coc2cc(O)cc(O)c12 [Genistein] — higher, 0.2 °C
- O=C(NCCCNc1nc(Nc2cccc(NC(=O)N3CCCC3)c2)ncc1I)c1cccs1 [BX-795] — higher, 0.2 °C
- CC(=O)Nc1cccc(-n2c(=O)n(C3CC3)c(=O)c3c(Nc4ccc(I)cc4F)n(C)c(=O)c(C)c32)c1 [Trametinib (GSK1120212)] — lower, -0.2 °C
- N#CCNC(=O)c1ccc(-c2ccnc(Nc3ccc(N4CCOCC4)cc3)n2)cc1 [CYT387] — higher, 0 °C
- CCS(=O)(=O)Nc1ccc2c(c1)/C(=C(/Nc1ccc(CN3CCCCC3)cc1)c1ccccc1)C(=O)N2 [Hesperadin] — higher, 1.5 °C
- CC1=C(C(=O)Nc2cc3cn[nH]c3cc2F)C(c2ccc(C(F)(F)F)cc2)CC(=O)N1 (stereo not drawn) [GSK429286A] — higher, 0.1 °C
- [H]/N=C(/N)N/C(=N/[H])NCCc1ccccc1 [Phenformin HCl] — lower, -0.2 °C
- C=CC(=O)Nc1cc(Nc2nccc(-c3cn(C)c4ccccc34)n2)c(OC)cc1N(C)CCN(C)C [AZD9291] — lower, -0.2 °C
- C[C@@H](Oc1cc(-n2cnc3ccc(CN4CCN(C)CC4)cc32)sc1C(N)=O)c1ccccc1C(F)(F)F [GSK461364] — higher, 0.4 °C
